Data taken from patent US20110190503A1, “Thiazolopyridin-2-yloxy-phenyl and thiazolopyrazin-2-yloxy-phenyl amines as modulators of leukotriene A4 hydrolase” (Janssen Pharmaceutical NV, priority 2008, published 2011).
Counter-ions that a name gives are not always drawn.

Tests used:
[1] = biological target: T1, recombinant human LTA4 hydrolase (rhLTA4H) (Homo sapiens, UniProt P09960); experiment: Recombinant human LTA4 hydrolase assay for LTA4 hydrolase inhibitor activity; assay type: biochemical; settings: rhLTA4H, LTA4 substrate, LTB4 by immunoassay; single determination or average; read-out: IC50
T1 construct: made in house; host or cells: Spodoptera frugiperda (Sf-9) cells, recombinant baculovirus (pFastBac1)
T1 sequence (P09960 1-611): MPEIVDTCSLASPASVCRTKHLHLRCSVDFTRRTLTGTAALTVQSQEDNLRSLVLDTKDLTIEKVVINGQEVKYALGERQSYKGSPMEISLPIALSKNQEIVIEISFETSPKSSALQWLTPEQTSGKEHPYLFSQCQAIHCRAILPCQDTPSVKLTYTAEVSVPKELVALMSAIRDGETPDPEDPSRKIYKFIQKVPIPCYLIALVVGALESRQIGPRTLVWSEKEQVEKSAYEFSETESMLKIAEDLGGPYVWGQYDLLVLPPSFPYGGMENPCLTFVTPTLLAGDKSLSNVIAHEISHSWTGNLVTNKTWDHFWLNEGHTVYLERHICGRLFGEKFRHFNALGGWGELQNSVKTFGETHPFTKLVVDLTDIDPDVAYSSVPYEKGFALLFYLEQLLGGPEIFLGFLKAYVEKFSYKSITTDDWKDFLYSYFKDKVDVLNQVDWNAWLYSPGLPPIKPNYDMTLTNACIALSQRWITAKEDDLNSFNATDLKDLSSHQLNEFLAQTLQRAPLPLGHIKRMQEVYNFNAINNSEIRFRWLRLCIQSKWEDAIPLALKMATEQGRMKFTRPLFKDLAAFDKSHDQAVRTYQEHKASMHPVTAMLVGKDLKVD
Method in brief: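 LTB4 formed from LTA4 substrate (free acid from the methyl ester) was quantified by enzyme immunoassay after a 30 min rt reaction. Enzyme was 10 ng Sf-9-expressed human LTA4 hydrolase, pre-incubated 10 min with compound.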

[2] = tested on: LTB4 production by calcium ionophore-stimulated murine blood; experiment: LTB4 production by calcium ionophore-stimulated murine blood for LTA4H inhibitor activity; assay type: cell-based, CD-1 mice; settings: Mus musculus; murine blood diluted 1 in 15, calcium ionophore A23187, LTB4 by immunoassay; read-out: IC50
Description: Assay 2: LTB4 Production by Calcium Ionophore-Stimulated Murine Blood for LTA4H Inhibitor Activity
CD-1 mice were sacrificed, and blood was collected in heparin-containing syringes by cardiac puncture. […] After the microtiter plate contents were incubated for 15 min at 37° C. in a humidified incubator, calcium ionophore A23187 (Sigma Chemical Co., St. Louis, Mo.) was added to each sample well (final concentration=7 μg/mL). The incubation was continued under the same conditions for an additional 30 min to allow LTB4 formation. The reaction was terminated by centrifugation (833×g, 10 min at 4° C.), and supernatants were analyzed for LTB4 by a commercially available enzyme-linked immunoassay (Cayman Chemical Co.) according to the manufacturer's instructions. Positive controls, under essentially identical conditions but without addition of an inhibitor compound, and negative unstimulated controls, containing all assay components except calcium ionophore, were routinely run in each experiment. […] The values presented here are the result of a single determination or an average of two or more determinations, as indicated in parentheses following each value. For compounds tested three or more times, the average value is followed by the standard deviation

Row | IC50 [1] [nM] | IC50 [2] [nM] | Structure (SMILES)
1 | 1 | 150 | c1cnc(OC2CCN(CCOc3ccc(Oc4nc5ncccc5s4)cc3)CC2)nc1 [Example 1, 2-(4-{2-[4-(Pyrimidin-2-yloxy)piperidin-1-yl]ethoxy}phenoxy)[1,3]thiazolo[4,5-b]pyridine]
2 | 24 | – | NC(=O)N1C[C@H]2CC[C@@H](C1)N2CCOc1ccc(Oc2nc3ncccc3s2)cc1 [Example 211, meso-8-{2-[4-([1,3]Thiazolo[4,5-b]pyridin-2-yloxy)phenoxy]ethyl}-3,8-diazabicyclo[3.2.1]octane-3-carboxamide]
3 | 18 | – | CC(=O)N1[C@@H]2CC[C@H]1CN(CCc1ccc(Oc3nc4ncccc4s3)cc1)C2 [Example 212, meso-2-(4-{2-[8-Acetyl-3,8-diazabicyclo[3.2.1]oct-3-yl]ethyl}phenoxy)[1,3]thiazolo[4,5-b]pyridine]
4 | 34 | – | CS(=O)(=O)N1C[C@H]2CC[C@@H](C1)N2CCOc1ccc(Oc2nc3ncccc3s2)cc1 [Example 213, meso-2-(4-{2-[3-(Methylsulfonyl)-3,8-diazabicyclo[3.2.1]oct-8-yl]ethoxy}phenoxy)[1,3]thiazolo[4,5-b]pyridine]
5 | 3 | – | CC(=O)N1[C@@H]2CC[C@H]1C[C@H](NCCc1ccc(Oc3nc4ncccc4s3)cc1)C2 [Example 214, meso-(3-exo)-8-Acetyl-N-{2-[4-([1,3]thiazolo[4,5-b]pyridin-2-yloxy)phenyl]ethyl}-8-azabicyclo[3.2.1]octan-3-amine]
6 | 21 | – | CC(=O)N1[C@@H]2CC[C@H]1C[C@H](NCCOc1ccc(Oc3nc4ncccc4s3)cc1)C2 [Example 215, meso-(3-exo)-8-Acetyl-N-{2-[4-([1,3]thiazolo[4,5-b]pyridin-2-yloxy)phenoxy]ethyl}-8-azabicyclo[3.2.1]octan-3-amine hydrochloride]
7 | 60 | – | COCC(=O)NC1CCN(Cc2ccc(Oc3nc4ncc(C)cc4s3)cc2)CC1 [Example 216, 2-Methoxy-N-(1-{4-[(6-methyl[1,3]thiazolo[4,5-b]pyridin-2-yl)oxy]benzyl}piperidin-4-yl)acetamide]
8 | 2510 | – | O=C(c1ccccn1)N1CCN(Cc2ccc(Oc3nc4ccncc4s3)cc2)CC1 [Example 217, 2-(4-{[4-(Pyridin-2-ylcarbonyl)piperazin-1-yl]methyl}phenoxy)[1,3]thiazolo[5,4-c]pyridine]
9 | 212 | – | CC(C)(C)C1CCN(Cc2ccc(Oc3nc4ncc(Cl)cc4s3)cc2)CC1 [Example 218, 2-{4-[(4-tert-Butylpiperidin-1-yl)methyl]phenoxy}-6-chloro[1,3]thiazolo[4,5-b]pyridine]
10 | 276 | – | CCC(=O)NC1CCN(Cc2ccc(Oc3nc4cccnc4s3)cc2)CC1 [Example 219, N-{1-[4-([1,3]Thiazolo[5,4-b]pyridin-2-yloxy)benzyl]piperidin-4-yl}propanamide]
11 | 109 | – | Cc1cnc2nc(Oc3ccc(CN4CCC(NC(=O)c5cccs5)CC4)cc3)sc2c1 [Example 220, N-(1-{4-[(6-Methyl[1,3]thiazolo[4,5-b]pyridin-2-yl)oxy]benzyl}piperidin-4-yl)thiophene-2-carboxamide]
12 | 181 | – | c1cc2sc(Oc3ccc(CCN4CCCC4)cc3)nc2cn1 [Example 221, 2-[4-(2-Pyrrolidin-1-ylethyl)phenoxy][1,3]thiazolo[4,5-c]pyridine]
13 | 563 | – | Clc1cnc2nc(Oc3ccc(CCN4CCC(N5CCCCC5)CC4)cc3)sc2c1 [Example 223, 1′-(2-{4-[(6-Chloro[1,3]thiazolo[4,5-b]pyridin-2-yl)oxy]phenyl}ethyl)-1,4′-bipiperidine]
14 | 4850 | – | CN1CCN(Cc2ccc(Oc3nc4cnccc4s3)cc2)CC1=O [Example 224, 1-Methyl-4-[4-([1,3]thiazolo[4,5-c]pyridin-2-yloxy)benzyl]piperazin-2-one]
15 | 21 | – | O=C(O)CCN1CCN(CCc2ccc(Oc3nc4ncccc4s3)cc2)CC1 [Example 225, 3-(4-{2-[4-([1,3]Thiazolo[4,5-b]pyridin-2-yloxy)phenyl]ethyl}piperazin-1-yl)propanoic acid hydrochloride]
16 | 1210 | – | CC(=O)N1CCCN(Cc2ccc(Oc3nc4ccncc4s3)cc2)CC1 [Example 226, 2-{4-[(4-Acetyl-1,4-diazepan-1-yl)methyl]phenoxy}[1,3]thiazolo[5,4-c]pyridine]

Row | IC50 [1] [nM] | IC50 [2] [nM] | Structure (SMILES)
17 | 748 | – | CN1CCN(C(=O)C2CCN(Cc3ccc(Oc4nc5ccncc5s4)cc3)CC2)CC1 [Example 227, 2-[4-({4-[(4-Methylpiperazin-1-yl)carbonyl]piperidin-1-yl}methyl)phenoxy][1,3]thiazolo[5,4-c]pyridine]
18 | 135 | – | CC(=O)N(C)[C@@H]1C[C@H]2CC[C@@H](C1)N2Cc1ccc(Oc2nc3cccnc3s2)cc1 [Example 228, meso-N-Methyl-N-{(3-exo)-8-[4-([1,3]thiazolo[5,4-b]pyridin-2-yloxy)benzyl]-8-azabicyclo[3.2.1]oct-3-yl}acetamide]
19 | 1090 | – | Cc1cnc2nc(Oc3ccc(CN4CCC(C(=O)N5CCNCC5)CC4)cc3)sc2c1 [Example 229, 6-Methyl-2-(4-{[4-(piperazin-1-ylcarbonyl)piperidin-1-yl]methyl}phenoxy)[1,3]thiazolo[4,5-b]pyridine hydrochloride]
20 | 331 | – | NC(=O)N1CC2CN(CCc3ccc(Oc4nc5ccncc5s4)cc3)CC2C1 (centres unmarked) [Example 246, 5-{2-[4-([1,3]Thiazolo[5,4-c]pyridin-2-yloxy)phenyl]ethyl}hexahydropyrrolo[3,4-c]pyrrole-2(1H)-carboxamide]
21 | 33 | – | CC(=O)N1CC(CN(C)Cc2ccc(Oc3nc4ncc(Cl)cc4s3)cc2)C1 [Example 247, 1-(1-Acetylazetidin-3-yl)-N-{4-[(6-chloro[1,3]thiazolo[4,5-b]pyridin-2-yl)oxy]benzyl}-N-methylmethanamine]
22 | 1160 | – | c1cncc(OC2CCN(Cc3ccc(Oc4nc5ccncc5s4)cc3)CC2)c1 [Example 248, 2-(4-{[4-(Pyridin-3-yloxy)piperidin-1-yl]methyl}phenoxy)[1,3]thiazolo[5,4-c]pyridine]
23 | 141 | – | CS(=O)(=O)N[C@@H]1C[C@H]2CC[C@@H](C1)N2Cc1ccc(Oc2nc3ccncc3s2)cc1 [Example 249, meso-N-{(3-exo)-8-[4-([1,3]Thiazolo[5,4-c]pyridin-2-yloxy)benzyl]-8-azabicyclo[3.2.1]oct-3-yl}methanesulfonamide]
24 | 140 | – | CN(C)C1CCN(Cc2ccc(Oc3nc4ncccc4s3)cc2)CC1 [Example 259, N,N-Dimethyl-1-[4-([1,3]thiazolo[4,5-b]pyridin-2-yloxy)benzyl]piperidin-4-amine]
25 | 293 | – | CN(CCN1CCCCC1)Cc1ccc(Oc2nc3ncccc3s2)cc1 [Example 271, N-Methyl-2-piperidin-1-yl-N-[4-([1,3]thiazolo[4,5-b]pyridin-2-yloxy)benzyl]ethanamine]
26 | 176 | – | CCOC(=O)CN(Cc1ccccc1)Cc1ccc(Oc2nc3ncccc3s2)cc1 [Example 273, Ethyl N-benzyl-N-[4-([1,3]thiazolo[4,5-b]pyridin-2-yloxy)benzyl]glycinate]
27 | 919 | – | O=C(O)CN(Cc1ccccc1)Cc1ccc(Oc2nc3ncccc3s2)cc1 [Example 274, N-Benzyl-N-[4-([1,3]thiazolo[4,5-b]pyridin-2-yloxy)benzyl]glycine]
28 | – | 550 | Clc1cnc2nc(Oc3ccc(CN4CCCCC4)cc3)sc2c1 [Example 279, 6-Chloro-2-(4-piperidin-1-ylmethyl-phenoxy)[1,3]thiazolo[4,5-b]pyridine]
29 | > 10000 | – | Cc1ccnc2sc(Oc3ccc(CN4CCCCC4)cc3)nc12 [Example 280, 7-Methyl-2-[4-(piperidin-1-ylmethyl)phenoxy][1,3]thiazolo[5,4-b]pyridine]
30 | > 10000 | – | CC(=O)N1C[C@@H]2C[C@H]1CN2Cc1ccc(Oc2nc3c(C)ccnc3s2)cc1 [Example 281, 2-(4-{[(1S,4S)-5-Acetyl-2,5-diazabicyclo[2.2.1]hept-2-yl]methyl}phenoxy)-7-methyl[1,3]thiazolo[5,4-b]pyridine]
31 | > 10000 | – | Cc1ccnc2sc(Oc3ccc(CN4CCC(C(N)=O)CC4)cc3)nc12 [Example 286, 1-{4-[(7-Methyl[1,3]thiazolo[5,4-b]pyridin-2-yl)oxy]benzyl}piperidine-4-carboxamide]
